Data as given in US7879795B2, “Enhancement of tigecycline potency using efflux pump inhibitors” (Mpex Pharmaceuticals, Inc., priority 2004, dated 2011).

Assays:
[1] = Stability in human serum; type: in vitro ADME; details: in words
Method: FIG. 9 compares the stability of compounds 1 and 3 in human serum as a function of time. Both compound 1 and compound 3 were stable after 18 hours of incubation with human serum.

[2] = system: P. aeruginosa strain PAM1723 overexpressing MexAB-OprM efflux pump; test: Neutropenic mice thigh model of PA infection; type: in vivo; details: levofloxacin 30 mg/kg SQ, EPI 60 mg/kg IP, 2 hours post-infection
Method: Efficacy of the EPIs was evaluated in a Neutropenic Mice Thigh Model of P. aeruginosa Infection. Neutropenia was induced by cyclophosphamide 100 mg/kg IP on days 3 and 1 prior to infection. P. aeruginosa strain PAM1723 overexpressing MexAB-OprM efflux pump was grown overnight in Mueller-Hinton Broth (MHB). The next day, the overnight culture was diluted in fresh MHB and was allowed to re-grow to ˜10^8 CFU/mL (OD600˜0.3). The culture was spun down, washed twice with phosphate buffered saline (PBS) and re-suspend in PBS to ˜4×10^6 CFU/mL. Next, this culture was mixed 1:1 with 14% hog-gastric mucin in PBS to give a final inoculum of 2×10^6 CFU/mL. Infection was initiated with injection of 0.1 mL of inoculum (˜2×10^5 CFU/thigh) directly into both thighs of each mouse. Two mice from each treatment group were euthanized at various times after the start of treatment. The thighs were removed aseptically, homogenized in saline, and immediately plated to determine bacterial load (CFU/ml). Treatment was initiated 2 hours post infection.

[3] = Tissue levels after 2-hour IV infusion in rats; type: in vivo, rat; details: for concentration at 4 h: 2 h after end of 2-hour IV infusion; for concentration at 4 h / concentration at 2 h / concentration at 6 h: 10 mg/kg; for concentration at 2 h: end of 2-hour IV infusion; for tissue levels and clearance from tissues after 2-hour IV infusion: rat, in words; for concentration at 6 h: 4 h after end of 2-hour IV infusion
Method: Levels of EPIs in various tissues were evaluated after 2-hour IV infusion in rats. The rats received 10 mg/kg IV infusion through FVC. Animals were divided into 2 groups: group 1 was sacrificed immediately after the end of infusion and group 2, 2 h or 4 h after the end of infusion. Tissues from each animal were collected, homogenized and compounds were extracted. Tissues were mixed with saline at 1:1 ratio (v/w) in 12×75 mm polypropylene round bottom tubes. The mixtures were homogenized with a Polytron homogenizer (on ice, 3×10-15 seconds with 30 seconds intervals at the setting of 7). 50 μl of homogenized tissue were immediately transferred to an Eppendorf tube and 2-volumes of 4% TCA were added. After vortexing for 30 seconds, the tubes were centrifuged in a microfuge at top speed (13.2 k rpm) for 5 minutes. The supernatant was collected, and 45 μl of the supernatant was transferred to a glass LC/MS/MS vial (Kimble, 11 mm, 1.5 ml) for analysis, which allowed determination of tissue levels of EPIs at the end of the infusion and 2 h or 4 h later.

[4] = Rat serum pharmacokinetics after 2-hour IV infusion; type: in vivo; details: serum, 2-hour IV infusion, total dose 10 mg/kg, two-compartment model
Method: Rat serum pharmacokinetics of compounds 1, 3, 7, and 21 was evaluated after 2-hour IV infusion of 1 mg/ml EPI solution in 0.9% saline. Total infused dose was 10 mg/kg. FIG. 12 depicts the serum concentrations as a function of time. A two-compartment model was used to fit the data and calculate PK parameters.

[5] = system: P. aeruginosa strain PAM1032 overexpressing MexAB-OprM efflux pump; test: Mouse sepsis model of PA infection (ED50 of levofloxacin); type: in vivo
Method: P. aeruginosa strain PAM1032 overexpressing MexAB-OprM efflux pump was grown overnight in Mueller-Hinton Broth (MHB). The next day, the overnight culture was diluted in fresh MHB and was allowed to re-grow to ˜10^8 CFU/mL (OD600˜0.3). The culture was spun down, washed twice with phosphate buffered saline (PBS) and re-suspend in PBS to ˜1.2×10^7 CFU/mL (OD=0.12). Next this culture was mixed 1:1 with 14% hog-gastric mucin in PBS to give a final inoculum of […].
The effect of the EPI at 50 mg/kg was determined according to the following experimental design: […]

[6] = system: strain 29A2 of P. aeruginosa overexpressing MexAB-OprM efflux pump; test: Neutropenic mice lung model of PA infection; type: in vivo; details: for bacterial load in infected lungs, EPI with levofloxacin: levofloxacin 30 mg/kg SQ plus EPI IP
Method: Neutropenia was induced by cyclophosphamide 100 mg/kg IP on days 3 and 1 prior to infection. The strain 29A2 of P. aeruginosa overexpressing MexAB-OprM efflux pump was grown overnight in Mueller-Hinton Broth (MHB). The next day overnight culture was diluted in fresh MHB and was allowed to re-grow to ˜10^8 CFU/mL (OD600˜0.3). The culture was spun down, washed twice with phosphate buffered saline (PBS) and re-suspended in PBS to ˜4×10^7 CFU/mL. 50 μl of inoculum was used for intratracheal instillation of mice, which were anesthetized with sevoflourane/oxygen. […] Four mice from each treatment group were euthanized at various times after the start of treatment. The lungs were removed aseptically, homogenized in saline, and immediately plated to determine bacterial load (CFU/ml) in infected lungs. P. aeruginosa is plotted as a function of time in FIG. 20.

[7] = Tissue levels in rat six-hour after 8.4 mg/kg IV bolus; type: in vivo; details: rat kidney, liver and lung; 8.4 mg/kg IV bolus; in words
Method: Tissue levels of compounds 1, 2, 3 and 4 were evaluated in kidney, liver and lung six-hour after 8.4 mg/kg IV bolus administration. FIG. 13 depicts the levels as a function of time.
Compound 67, which is the expected metabolite of proteolytic intracellular degradation of compound 3, was detected in rat tissues after IV infusion, confirming the tissue-specific degradation of compound 3 (Tables 9A, B).

NCCC[C@@H](N)C(=O)N[C@H](CCc1ccccc1)C(=O)Nc1cnc2ccccc2c1 [Compound 1, 2-(R),5-Diamino-pentanoic acid [3-phenyl-1-(R)-(quinolin-3-ylcarbamoyl)-propyl]-amide]
stability after 18 hours of incubation with human serum [1]: stable | bacterial load in thighs, EPI with levofloxacin versus levofloxacin alone [2]: significantly enhanced activity of levofloxacin | 2 h/4 h Ratio ([3]; rat brain concentration): 1.34 | concentration at 4 h ([3]; rat brain): 130 ng/mL | concentration at 2 h ([3]; rat brain): 180 ng/mL | 2 h/4 h Ratio ([3]; rat heart concentration): 0.93 | concentration at 4 h ([3]; rat heart): 2340 ng/mL | concentration at 2 h ([3]; rat heart): 2180 ng/mL | 2 h/4 h Ratio ([3]; rat kidney concentration): 1.66 | concentration at 4 h ([3]; rat kidney): 29600 ng/mL | concentration at 2 h ([3]; rat kidney): 49300 ng/mL | 2 h/4 h Ratio ([3]; rat liver concentration): 0.99 | concentration at 4 h ([3]; rat liver): 10600 ng/mL | concentration at 2 h ([3]; rat liver): 10600 ng/mL | 2 h/4 h Ratio ([3]; rat lung concentration): 1.55 | concentration at 4 h ([3]; rat lung): 4180 ng/mL | concentration at 2 h ([3]; rat lung): 6500 ng/mL | 2 h/4 h Ratio ([3]; rat muscle concentration): 1.59 | concentration at 4 h ([3]; rat muscle): 2860 ng/mL | concentration at 2 h ([3]; rat muscle): 4540 ng/mL | 2 h/4 h Ratio ([3]; rat pancreas concentration): 1.34 | concentration at 4 h ([3]; rat pancreas): 4050 ng/mL | concentration at 2 h ([3]; rat pancreas): 5400 ng/mL | 2 h/4 h Ratio ([3]; rat spleen concentration): 1.35 | concentration at 4 h ([3]; rat spleen): 3710 ng/mL | concentration at 2 h ([3]; rat spleen): 5010 ng/mL | 2 h/4 h Ratio ([3]; rat testicles concentration): 2.04 | concentration at 4 h ([3]; rat testicles): 280 ng/mL | concentration at 2 h ([3]; rat testicles): 580 ng/mL | 2 h/4 h Ratio ([3]; rat thymus concentration): 1.23 | concentration at 4 h ([3]; rat thymus): 2760 ng/mL | concentration at 2 h ([3]; rat thymus): 3410 ng/mL | tissue levels and clearance from tissues after 2-hour IV infusion [3]: High levels | clearance [4]: 24 mL/min/kg | decrease of ED50 of levofloxacin ([5]; EPI at 50 mg/kg IP, survival at 24 hours): 4 fold | growth of P. aeruginosa in infected lungs, EPI alone ([6]; EPI 100 mg/kg IP alone (0/100) versus no addition): No difference in growth | bacterial load in infected lungs, EPI with levofloxacin [6]: significantly decreased bacterial load | tissue levels at 6 hours after IV injection [7]: relatively high levels

NCCC[C@H](N)C(=O)N[C@H](CCc1ccccc1)C(=O)Nc1cnc2ccccc2c1 [Compound 3, 2-(S),5-Diamino-pentanoic acid [3-phenyl-1-(R)-(quinolin-3-ylcarbamoyl)-propyl]-amide]
stability after 18 hours of incubation with human serum [1]: stable | bacterial load in thighs, EPI with levofloxacin versus levofloxacin alone [2]: potentiated levofloxacin in vivo | 2 h/4 h Ratio ([3]; rat brain concentration): 0.35 | concentration at 4 h ([3]; rat brain): 210 ng/mL | concentration at 2 h ([3]; rat brain): 70 ng/mL | 2 h/4 h Ratio ([3]; rat heart concentration): 4.82 | concentration at 4 h ([3]; rat heart): 470 ng/mL | concentration at 2 h ([3]; rat heart): 2260 ng/mL | 2 h/4 h Ratio ([3]; rat kidney concentration): 7.28 | concentration at 4 h ([3]; rat kidney): 1680 ng/mL | concentration at 2 h ([3]; rat kidney): 12200 ng/mL | 2 h/4 h Ratio ([3]; rat liver concentration): 1.60 | concentration at 4 h ([3]; rat liver): 830 ng/mL | concentration at 2 h ([3]; rat liver): 1330 ng/mL | 2 h/4 h Ratio ([3]; rat lung concentration): 2.23 | concentration at 4 h ([3]; rat lung): 1910 ng/mL | concentration at 2 h ([3]; rat lung): 4270 ng/mL | 2 h/4 h Ratio ([3]; rat muscle concentration): 1.91 | concentration at 4 h ([3]; rat muscle): 1140 ng/mL | concentration at 2 h ([3]; rat muscle): 2180 ng/mL | 2 h/4 h Ratio ([3]; rat pancreas concentration): 2.91 | concentration at 4 h ([3]; rat pancreas): 380 ng/mL | concentration at 2 h ([3]; rat pancreas): 1110 ng/mL | 2 h/4 h Ratio ([3]; rat spleen concentration): 6.16 | concentration at 4 h ([3]; rat spleen): 720 ng/mL | concentration at 2 h ([3]; rat spleen): 4410 ng/mL | 2 h/4 h Ratio ([3]; rat testicles concentration): 5.14 | concentration at 4 h ([3]; rat testicles): 60 ng/mL | concentration at 2 h ([3]; rat testicles): 320 ng/mL | 2 h/4 h Ratio ([3]; rat thymus concentration): 1.69 | concentration at 4 h ([3]; rat thymus): 1460 ng/mL | concentration at 2 h ([3]; rat thymus): 2460 ng/mL | tissue levels and clearance from tissues after 2-hour IV infusion [3]: Lower levels | clearance [4]: 23.3 mL/min/kg | decrease in ED50 of levofloxacin ([5]; increasing concentrations of EPI, dose-dependent): up to 4 fold | bacterial load in infected lungs, EPI with levofloxacin [6]: dose-dependent efficacy in levofloxacin potentiation | tissue levels at 6 hours after IV injection [7]: very low level

NCCC[C@H](N)C(=O)N[C@H](Cc1ccc(C(F)(F)F)cc1)C(=O)Nc1cnc2ccccc2c1 [Compound 21, 2-(S),5-Diamino-pentanoic acid [1-(R)-(quinolin-3-ylcarbamoyl)-2-(4-trifluoromethyl-phenyl)-ethyl]amide]
bacterial load in thighs, EPI with levofloxacin versus levofloxacin alone [2]: significantly enhanced activity of levofloxacin | 2 h/6 h Ratio ([3]; rat brain concentration): 16.37 | concentration at 4 h ([3]; rat brain): 470 ng/mL | concentration at 6 h ([3]; rat brain): 30 ng/mL | concentration at 2 h ([3]; rat brain): 490 ng/mL | 2 h/6 h Ratio ([3]; rat heart concentration): 7.33 | concentration at 4 h ([3]; rat heart): 1760 ng/mL | concentration at 6 h ([3]; rat heart): 720 ng/mL | concentration at 2 h ([3]; rat heart): 5250 ng/mL | 2 h/6 h Ratio ([3]; rat kidney concentration): 20.10 | concentration at 4 h ([3]; rat kidney): 20800 ng/mL | concentration at 6 h ([3]; rat kidney): 2920 ng/mL | concentration at 2 h ([3]; rat kidney): 58700 ng/mL | 2 h/6 h Ratio ([3]; rat liver concentration): 30.21 | concentration at 4 h ([3]; rat liver): 2320 ng/mL | concentration at 6 h ([3]; rat liver): 200 ng/mL | concentration at 2 h ([3]; rat liver): 5950 ng/mL | 2 h/6 h Ratio ([3]; rat lung concentration): 3.43 | concentration at 6 h ([3]; rat lung): 3900 ng/mL | concentration at 2 h ([3]; rat lung): 13400 ng/mL | 2 h/6 h Ratio ([3]; rat muscle concentration): 3.94 | concentration at 4 h ([3]; rat muscle): 1360 ng/mL | concentration at 6 h ([3]; rat muscle): 1210 ng/mL | concentration at 2 h ([3]; rat muscle): 4750 ng/mL | 2 h/6 h Ratio ([3]; rat pancreas concentration): 20.73 | concentration at 4 h ([3]; rat pancreas): 1580 ng/mL | concentration at 6 h ([3]; rat pancreas): 470 ng/mL | concentration at 2 h ([3]; rat pancreas): 9710 ng/mL | 2 h/6 h Ratio ([3]; rat spleen concentration): 3.46 | concentration at 4 h ([3]; rat spleen): 4440 ng/mL | concentration at 6 h ([3]; rat spleen): 2210 ng/mL | concentration at 2 h ([3]; rat spleen): 7660 ng/mL | 2 h/6 h Ratio ([3]; rat testicles concentration): 8.32 | concentration at 4 h ([3]; rat testicles): 330 ng/mL | concentration at 6 h ([3]; rat testicles): 80 ng/mL | concentration at 2 h ([3]; rat testicles): 700 ng/mL | 2 h/6 h Ratio ([3]; rat thymus concentration): 2.02 | concentration at 4 h ([3]; rat thymus): 6000 ng/mL | concentration at 6 h ([3]; rat thymus): 3590 ng/mL | concentration at 2 h ([3]; rat thymus): 7250 ng/mL | tissue levels and clearance from tissues after 2-hour IV infusion [3]: Slower clearance | clearance [4]: 16.2 mL/min/kg
